Reference: patent US11077080B2, “Use of anti-connexin agents for modulating the therapeutic effect of psychotropic drugs” (Commissariat A L'Energie Atomique Et Aux Energies …, priority 2008, dated 2021)

Tested on: electrical activity of the prefrontal cortex
Assay: Quantitative EEG spectral analysis (FFT relative powers) in conscious rats
Type: in vivo, Wistar rats
Conditions: for actual EEG effect: MFA 0.4 mg/kg ip; for increase in the relative powers in the prefrontal cortex: paroxetine 0.5 mg/kg ip alone
Procedure: A group of 6 conscious Wistar rats was pre-implanted with 6 bipolar bilateral electrodes (2 frontal, 2 anterior hippocampic, 2 posterior hippocampic).
Different treatments were conducted by circular combination of 6 rats by treatment (psychotropic treatment alone, anti-connexin treatment alone, anti-connexin+psychotropic combination treatment). The injection of meclofenamic acid (Sigma) is performed by slow submeningeal injection (80 ng/kg, 4.5 pg/second) or intraperitoneally at different doses. The injection of glycyrrhetinic acid (Sigma) is performed by submeningeal injection (80 ng/kg). The injection of clozapine (Sigma) is performed intraperitoneally (0.2 mg/kg). The injection of paroxetine (Sigma) is performed intraperitoneally (0.5 mg/kg). The injection of modafinil (Cephalon) is performed intraperitoneally (125 mg/kg and 250 mg/kg).
The EEG measurements were performed on the different groups of conscious rats (previously implanted and habituated) by 2-hour recordings after injection. The spectral analysis performed by Fourier transform (FFT) makes it possible to obtain relative powers, Hertz-by-Hertz and second-by-second. The FFT data is then averaged minute-by-minute and associated with the solvent control produced the day prior to the recording under strictly identical experimental conditions. The relative spectral powers of the left and right prefrontal cortices are then averaged by 5-minute periods, averaged by groups of 12 5-minute repetitions and represented hour-by-hour.
The data obtained from the relative quantitative EEG analysis of the effects of the different drugs administered individually (psychotropic alone or anti-connexin agents alone), presented in the examples, were subjected to a statistical analysis by analysis of variance (ANOVA) with three factors: “Frequency” (by Hz), “Time” (first and second hour by 12 averaged 5-minute repetitions) and “Animal” (6 different animals for each treatment). For the combinations of psychotropic and anti-connexin agents presented in the examples, a fourth ANOVA factor was introduced: “Anti-connexin combination”. The significance threshold of the relative power modifications for a given frequency for a psychotropic drug alone with respect to the control (solvent of the psychotropic agent) or a psychotropic drug in combination with an anti-connexin with respect to the psychotropic agent administered alone (in favor of a relative power increase or a decrease) was chosen at a value of P<0.05.

[1] = diazepam 1 mg/kg ip alone, first hour

## Cc1ccc(Cl)c(Nc2ccccc2C(=O)O)c1Cl [MFA, Benzoic 2-[(2,6-di-chloro-3-phenyl)amino] acid]
MFA 80 ng/kg submeningeal, 8-10 Hz, first hour extending to second hour
  increase in the EEG potential / synchronization of the prefrontal cerebral activity: 140%
First hour
  actual EEG effect: no significant modification
Second hour
  actual EEG effect: slight significant increase
MFA central administration (80 ng/kg submeningeal), second hour
  synchronization of the prefrontal cerebral activity at the second hour: decreases
MFA peripheral administration (2.45 mg/kg ip), second hour
  synchronization of the prefrontal cerebral activity at the second hour: significant increase in synchronization continues at the second hour

## CC(NC(C)(C)C)C(=O)c1cccc(Cl)c1 (stereo not drawn) [bupropion]
Bupropion 0.16 mg/kg ip alone, first hour
  increase in power of the 8-10 Hz components: around 180%
Bupropion 0.8 mg/kg ip alone, first hour
  increase in power of the 8-10 Hz components: ~450%
Bupropion 4 mg/kg ip alone, first hour
  increase in power of the 8-10 Hz components: ~280%

## CN1CCN(C2=Nc3cc(Cl)ccc3Nc3ccccc32)CC1 [clozapine]
Clozapine 0.2 mg/kg ip alone, 8-10 Hz, from first hour extending to second hour
  increase in the EEG potential / synchronization of the prefrontal cerebral activity: 200%

## CN1C(=O)CN=C(c2ccccc2)c2cc(Cl)ccc21 [diazepam]
[1]
  decrease in power of the 4-7 Hz components: around 25%
  increase in the power of the 11-30 Hz components: around 120%

## CN(C)CCC[C@@]1(c2ccc(F)cc2)OCc2cc(C#N)ccc21 [escitalopram]
Escitalopram 0.8 mg/kg ip alone, first hour
  increase in power of the 6-8 Hz components: around 150%
Escitalopram 4 mg/kg ip alone, first hour
  increase in power of the 6-8 Hz components: ~200%

## NC(=O)C[S+]([O-])C(c1ccccc1)c1ccccc1 (stereo not drawn) [modafinil]
Modafinil 125 mg/kg ip alone, 2-5 Hz
  increase in the EEG potential / synchronization of the prefrontal cerebral activity: 120%
Modafinil 250 mg/kg ip alone, 2-5 Hz
  increase in the EEG potential / synchronization of the prefrontal cerebral activity: 300%

## Fc1ccc([C@@H]2CCNC[C@H]2COc2ccc3c(c2)OCO3)cc1 [paroxetine]
8-10 Hz, first hour
  increase in the relative powers in the prefrontal cortex: around 200%
8-10 Hz, second hour
  increase in the relative powers in the prefrontal cortex: around 300%

## CN[C@H]1CC[C@@H](c2ccc(Cl)c(Cl)c2)c2ccccc21 [sertraline]
Sertraline 0.16 mg/kg ip alone, first hour
  increase in power of the 7-9 Hz components: around 260%
Sertraline 0.8 mg/kg ip alone, first hour
  increase in power of the 7-9 Hz components: around 260%
Sertraline 0.8 mg/kg ip alone, second hour
  increase in power of the same components at the second hour: 900%
Sertraline 4 mg/kg ip alone, first hour
  increase in power of the 7-9 Hz components: ~200%
Sertraline 4 mg/kg ip alone, second hour
  increase in power of the same components at the second hour: 450%

## COc1ccc(C(CN(C)C)C2(O)CCCCC2)cc1 (stereo not drawn) [venlafaxine]
Venlafaxine 0.16 mg/kg ip alone, first hour
  increase in power of the 8-10 Hz components: around 120%
Venlafaxine 4 mg/kg ip alone, first hour
  increase in power of the 8-10 Hz components: ~200%
